The values that follow come from patent US20240174690A1, “ANNULATED 2-AMINO-3-CYANO THIOPHENES AND DERIVATIVES FOR THE TREATMENT OF CANCER” (BOEHRINGER INGELHEIM INTERNATIONAL GMBH, priority 2021, published 2024).

The structures appear in SMILES notation.

In one data set the test system is SK-CO-1 cells. Description: SK-CO-1 CTG proliferation assay (120 h) (CRC, G12V). The class given is cell-based. The note with it: Homo sapiens; SK-CO-1 cells (CRC, G12V), CTG 120 h. The essentials:
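Compound exposure lasted 120 h in KRAS G12V SK-CO-1 cells seeded overnight at 500 cells/well in 10% FCS EMEM. CellTiter-Glo RLU normalised to DMSO wells gave percent viability, and a four-parameter model fit yielded IC50.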

In data set [1] the test system is KRAS G12V-dependent Ba/F3 cells. Kind of data set: Ba/F3 proliferation assay, KRAS G12V.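 Also: proliferation IC50 in KRAS G12V-dependent Ba/F3 cells read by AlamarBlue.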 The class given is cell-based. The note with it: Mus musculus, BaF3, 72 h, AlamarBlue. The procedure, abridged: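 IL-3-independent Ba/F3 lines driven by transduced KRAS G12C, G12D or G12V, with puromycin withdrawn about ten days before testing. Viability after compound treatment measured by AlamarBlue fluorescence in duplicate, and values derived by curve fitting.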
On the technique in general: Resazurin is reduced to fluorescent resorufin, in cell work by metabolically active cells.

The test system of a further data set is NCI-H2122 cells. Kind of data set: NCI-H2122 CTG proliferation assay (120 h) (NSCLC, G12C). The class given is cell-based. The note with it: Homo sapiens. The procedure, abridged: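 Proliferation was read by CellTiter-Glo luminescence after 120 h of compound exposure, starting one day after seeding 200 NCI-H2122 (G12C) cells per well in RPMI/10% FCS. RLU relative to DMSO wells gave percent viability, and four-parameter nonlinear regression gave IC50.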

The target of another data set is CYP3A4 (Homo sapiens (Human), UniProt P08684). Kind of data set: Mechanism based inhibition of CYP3A4 assay (MBI 3A4). The class given is in vitro ADME. The note with it: hydroxy-midazolam formation after 30 min vs 0 min preincubation, 25 uM, human liver microsomes. The essentials: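 Readout is hydroxy-midazolam formed after 30 min preincubation relative to 0 min, measured by LC/MS-MS after acetonitrile quench. Following preincubation, samples diluted 1:10 and incubated 15 min with midazolam substrate.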

The IC50 is the concentration at which inhibition is half-maximal. Low values mean greater potency, high ones weaker potency.

Chain of CYP3A4 (P08684 whole entry): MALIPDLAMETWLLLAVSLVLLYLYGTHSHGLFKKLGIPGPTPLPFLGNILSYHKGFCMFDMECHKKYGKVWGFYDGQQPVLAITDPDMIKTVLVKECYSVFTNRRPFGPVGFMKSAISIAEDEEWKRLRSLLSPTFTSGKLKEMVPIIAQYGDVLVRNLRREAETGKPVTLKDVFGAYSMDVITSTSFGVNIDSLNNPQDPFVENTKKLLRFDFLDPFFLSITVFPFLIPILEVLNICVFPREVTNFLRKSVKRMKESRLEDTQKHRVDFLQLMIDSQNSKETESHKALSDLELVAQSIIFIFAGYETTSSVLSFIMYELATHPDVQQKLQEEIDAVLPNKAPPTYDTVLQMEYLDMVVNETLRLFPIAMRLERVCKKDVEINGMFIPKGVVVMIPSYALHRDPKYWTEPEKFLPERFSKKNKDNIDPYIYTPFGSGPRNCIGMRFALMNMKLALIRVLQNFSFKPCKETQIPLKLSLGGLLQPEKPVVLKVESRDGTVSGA

Turning to `C[C@H](Oc1cc(-n2ccc(-c3ccccn3)n2)nc(-c2noc3c2CCC[C@@]32CCCc3sc(N)c(C#N)c32)n1)[C@@H]1CCCN1C` [II-119], the IC50 in the data set on SK-CO-1 cells was found to be 37 nM; in data set [1], 6 nM; in the data set with NCI-H2122 cells it was 251 nM. Also, at CYP3A4, the “MBI 3A4” value is 52%.
Take `CNC(=O)c1cn(-c2cc(O[C@@H](C)[C@@H]3CCCN3C)nc(-c3noc4c3CCC[C@@]43CCCc4sc(N)c(C#N)c43)n2)nn1` [II-122]: the IC50 was 52 nM in the data set on SK-CO-1 cells, 10 nM in data set [1] and 961 nM with NCI-H2122 cells. The “MBI 3A4” value on CYP3A4 turned out to be 68%.
